Assay results: patent USRE36385E, “Glucopyranose derivatives” (Ono Pharmaceutical Co., Ltd., priority 1985, dated 1999)
Read-outs that look alike come from different tables or passages of the source.

Columns and labels:
lympha cells = assay: Mitogenic activity in vitro (Blastogenic index); type: cell-based, C3H/He male mice; conditions: Mus musculus, Lymphocyte
Experimental: (1) Mitogenic activity in vitro
Mitogenic activity means activity of activating mitogenic cell division, and in this test system, the amount of tymidine taken into lympha cells was measured and a ratio determined against a blank control call (Blastogenic index) was calculated.
For example, adding the compound prepared in example 1(c) to the test system induced 30 times the amount of tymidine taken into the lympha cells versus the control.
The amounts were measured by density of a radiolabel.
Mytogenic activity in vitro was measured by the following method (See Procedure Method of Immunoexperiment pp 315 published by Japan Immunology Society).
C3H/He male mice 6 weeks old were killed by bloodletting, and their spleens were isolated and homogenized. Homogenizing liquids were filtered with gauze, and suspending cells were prepared with PBS solution. After washing, lymphacytes fractions were gathered with lympholight M. Lymphacytes were suspended in RPMI 1640 cultivation solution (10% FEBS), and the solution was divided into 5×10^5 cells/180 μl/wells. Ten times concentration of the terminal concentration (1 μg/ml) of the compounds of the present invention were added with 20 μl portions to each of the wells.
After cultivation, ^3 H-tymidine 0.5 μCi/20 μl was added to the each cells. Cultivation was continued at 37° C. for another 24 hrs, and amounts of ^3 H-tymidine taken into the cells were measured. Mitogenic activities were calculated as by Blastogenic index in as follows. [formula]

Mice L-M cells = assay: Inducing activities of TNF in vitro (cytotoxicity of serum from treated mice); type: cell-based, mice (ICR male mice serum; mice L-M cells); conditions: Mus musculus, iv; 10 μg via tail vein, serum 90 mins after; L-M cells 48 hrs; read-out: Cytotoxicities
Experimental: (2) Inducing activities of TNF in vitro
Inducing activity of TNF in vitro was measured by the following test system.
Corye parvum (manufactured by Ribi Immuno Chem. Research Inc.) was administered in ICR male mice 6-weeks old through the tail vein as priming agent. Ten days later, the compounds of the present invention (10 μg) were administered through tail vein as eliciting agent. 90 mins after the administration, blood was collected from the hearts, and blood serums were separated.
Mice L-M cells (10^4 /100 μl/well) suspended in a mixture of the diluted serum solution (100 μl/well) and RPMI 1640 cultivating solution (10% FEBS and 0.2% glucose; manufactured by Nissui Pharmaceutical Co.) were cultivated in an atmosphere of a mixed gas of 5% CO2 -[…], for 48 hrs at 37° C., after adding ^3 H-tymidine taken (0.5 μCi/20 μl/well). Amounts of ^3 H-tymidine taken into cells during the cultivation were measured.
Inducing activities of TNF were measured by cytotoxicity calculated as follows: [formula]

[1] = Acute toxicity (LD50), intravenous in mice; conditions: mouse, in vivo
Experimental: For example, the values of LD50 of the compound prepared in example 1(c) was more than 300 mg/kg animal body weight by intravenous administration in mice.

Meth-A sarcoma = assay: Anti-tumor effect on Balb/C mice inoculated with Meth-A Sarcoma; type: in vivo, female Balb/C mice; conditions: for Apperarent tumor weight: g ± standard error; for Survival period: iv tail vein Day 7, 9, 12, day ± standard error
Experimental: (1) Anti-tumor effect on Balb/C mice inocudlated with Meth-A Sarcoma
Anti-tumor effect was measured by the following procedure.
Tumor cells which had been maintained in ascites of Balb/C mouse generation after generation was used. One group is consisting of eight female Balb/C mice. Meth-A sarcoma tumor (1×10^5 cells/0.05 ml) was inoculated into left side of female mice of 7-week old (body weight: 18-20 g). Seven day after, when tumor size came to 6~9 mm, test compound was administered into tail vein first (day 7) and then administered two times (total three times: Day 7, 9, 12). Dose of test compound is 3 and 10 mg/kg or 3, 10 and 30 mg/kg and each test compound solution volume was 10 ml/kg. Anti-tumor effect is estimated by survival period (from inoculation day to death day) and tumor apparent weight. [formula] Test results about survival period and tumor appearent weight are shown in the following Tables II(1) and II(2), respectively.
In experiments, statistic analysis was done with unpaired Student's t(two tailed)-test. […] P values lower than 0.05 were judged to be significant.

[2] = terminal concentration 1 μg/ml, ratio of 3H-tymidine uptake vs blank control, read-out: Blastgenic Index

**Q.** What does the source list for CCCCCCCCCCCCCC(=O)OC(CCCCCCCCCCC)CC(=O)N[C@H]1COC[C@@H](OS(=O)(=O)O)[C@@H]1OC(=O)CCCCCCCCCCCCC (single isomer, unassigned) [3(b), 2-deoxy-2-[3-tetradecanoyloxytetradecanoyl]amino-3-O-tetradecanoyl-4-O-sulfo-1,5-anhydro-D-xylitol]?
**A.** fold induction at 1 µg/mL (lympha cells; [2]): 13.7; cytotoxicity at 0.01 mg (Mice L-M cells): 30.2%

**Q.** With CCCCCCCCCCC[C@@H](CC(=O)N[C@H]1C(O)O[C@H](CO)[C@@H](OS(=O)(=O)O)[C@@H]1OC(=O)CCCCCCCCc1ccccc1)OC(=O)CCCCCCCCc1ccccc1 (stereo partly drawn) [1(c), 2-deoxy-2-[3S-(9-phenylnonanoyloxy)tetradecanoyl]amino-3-O-(9-phenylnonanoyl)-4-O-sulfo-D-glucopyranose] as the compound, how does the fold induction at 1 µg/mL (lympha cells; compound added to the test system, 1 μg/ml, read-out: amount of tymidine taken into the lympha cells versus the control) read?
**A.** 30

**Q.** And the fold induction at 1 µg/mL (lympha cells; [2])?
**A.** 30

**Q.** And the cytotoxicity at 0.01 mg (Mice L-M cells)?
**A.** 86%

**Q.** And the LD50 [1]?
**A.** > 300 mg/kg

**Q.** What about the Apperarent tumor weight (Meth-A sarcoma; 3 mg/kg iv, Day 7) of the same compound?
**A.** 0.200 ± 0.074 g

**Q.** What about the Apperarent tumor weight (Meth-A sarcoma; 3 mg/kg iv, Day 10) of the same compound?
**A.** 0.240 ± 0.118 g

**Q.** What about the Apperarent tumor weight (Meth-A sarcoma; 3 mg/kg iv, Day 13) of the same compound?
**A.** 0.314 ± 0.206 g

**Q.** What about the Apperarent tumor weight (Meth-A sarcoma; 3 mg/kg iv, Day 16) of the same compound?
**A.** 0.580 ± 0.412 g

**Q.** What about the Apperarent tumor weight (Meth-A sarcoma; 10 mg/kg iv, Day 7) of the same compound?
**A.** 0.199 ± 0.044 g

**Q.** What about the Apperarent tumor weight (Meth-A sarcoma; 10 mg/kg iv, Day 10) of the same compound?
**A.** 0.156 ± 0.084 g

**Q.** And the Apperarent tumor weight (Meth-A sarcoma; 10 mg/kg iv, Day 13)?
**A.** 0.120 ± 0.099 g

**Q.** And the Apperarent tumor weight (Meth-A sarcoma; 10 mg/kg iv, Day 16)?
**A.** 0.208 ± 0.253 g

**Q.** And the “effect on prolongation of life” value (Meth-A sarcoma; at the dose of 10 mg/kg)?
**A.** significant effect

**Q.** What about the “effect on tumore regression” value (Meth-A sarcoma; at the dose of 10 mg/kg) of the same compound?
**A.** significant effect

**Q.** What about the Survival period (Meth-A sarcoma; dose 3 (mg/kg)) of the same compound?
**A.** 46.8 ± 6.3 days

**Q.** What about the Survival period (Meth-A sarcoma; dose 10 (mg/kg)) of the same compound?
**A.** 62.8 ± 18.8 days

**Q.** What does the source list for CCCCCCCCCCC[C@@H](CC(=O)N[C@H]1C(O)O[C@H](CO)[C@@H](OS(=O)(=O)O)[C@@H]1OC(=O)CCCCCCCCCc1ccccc1)OC(=O)CCCCCCCCCc1ccccc1 (stereo partly drawn) [1(d), 2-deoxy-2-[3S-(10-phenyldecanoyloxy)tetradecanoyl]amino-3-O-(10-phenyldecanoyl)-4-O-sulfo-D-glucopyranose]?
**A.** fold induction at 1 µg/mL (lympha cells; [2]): 28; cytotoxicity at 0.01 mg (Mice L-M cells): 95%

**Q.** Which results are given for CCCCCCCCCCC[C@H](CC(=O)N[C@H]1C(O)O[C@H](CO)[C@@H](OS(=O)(=O)O)[C@@H]1OC(=O)CCCCCCCCc1ccccc1)OC(=O)CCCCCCCCc1ccccc1 (stereo partly drawn) [1(h), 2-deoxy-2-[3R-(9-phenylnonanoyloxy)tetradecanoyl]amino-3-O-(9-phenylnonanoyl)-4-O-sulfo-D-glucopyranose]?
**A.** fold induction at 1 µg/mL (lympha cells; [2]): 37; cytotoxicity at 0.01 mg (Mice L-M cells): 81%

**Q.** For CCCCCCCCCCC[C@@H](CC(=O)N[C@H]1C(O)O[C@H](CO)[C@@H](OS(=O)(=O)O)[C@@H]1OC(=O)CCCCCCCCc1ccc(Cl)cc1)OC(=O)CCCCCCCCc1ccc(Cl)cc1 (stereo partly drawn) [1(j), 2-deoxy-2-[3S-[9-(4-chlorophenyl)nonanoyloxy]tetradecanoyl]amino-3-O-[9-(4-chlorophenyl)nonanoyl]-4-O-sulfo-D-glucopyranose], which fold induction at 1 µg/mL (lympha cells; [2]) is on record?
**A.** 25

**Q.** And the cytotoxicity at 0.01 mg (Mice L-M cells)?
**A.** 69%

**Q.** For O=C(C[C@H](CCCCCCc1ccccc1)OC(=O)CCCCCCCCc1ccccc1)N[C@H]1C(O)O[C@H](CO)[C@@H](OS(=O)(=O)O)[C@@H]1OC(=O)CCCCCCCCc1ccccc1 (stereo partly drawn) [1(r), 2-deoxy-2-[3S-(9-phenylnonanoyloxy)-9-phenylnonanoyl]amino-3-O-(9-phenylnonanoyl)-4-O-sulfo-D-glucopyranose], which fold induction at 1 µg/mL (lympha cells; [2]) is on record?
**A.** 17

**Q.** And the cytotoxicity at 0.01 mg (Mice L-M cells)?
**A.** 86%

**Q.** For CCCCCCCCCCC[C@H](CC(=O)N[C@H]1CO[C@H](CO)[C@@H](OS(=O)(=O)O)[C@@H]1OC(=O)CCCCCCCCc1ccccc1)OC(=O)CCCCCCCCc1ccccc1 [1(s), 2-deoxy-2-[3R-(9-phenylnonanoyloxy)tetradecanoyl]amino-3-O-(9-phenylnonanoyl)-4-O-sulfo-1,5-anhydro-D-glucitol], which fold induction at 1 µg/mL (lympha cells; [2]) is on record?
**A.** 58

**Q.** And the cytotoxicity at 0.01 mg (Mice L-M cells)?
**A.** 100%

**Q.** With CCCCCCCCCCCCCC(=O)O[C@H]1[C@H](OS(=O)(=O)O)[C@@H](CO)OC(O)[C@@H]1NC(=O)c1ccc(OCCCCCCCCCC)c(OCCCCCCCCCC)c1 (stereo partly drawn) [Example 4, 2-deoxy-2-(3,4-didecyloxybenzoyl)amino-3-O-tetradecanoyl-4-O-sulfo-D-glycopyranose] as the compound, how does the fold induction at 1 µg/mL (lympha cells; [2]) read?
**A.** 27.7

**Q.** And the cytotoxicity at 0.01 mg (Mice L-M cells)?
**A.** 20%

**Q.** And the Apperarent tumor weight (Meth-A sarcoma; 3 mg/kg iv, Day 7)?
**A.** 0.212 ± 0.042 g

**Q.** And the Apperarent tumor weight (Meth-A sarcoma; 3 mg/kg iv, Day 10)?
**A.** 0.469 ± 0.169 g

**Q.** And the Apperarent tumor weight (Meth-A sarcoma; 3 mg/kg iv, Day 13)?
**A.** 0.650 ± 0.162 g

**Q.** And the Apperarent tumor weight (Meth-A sarcoma; 3 mg/kg iv, Day 16)?
**A.** 1.004 ± 0.434 g

**Q.** What about the Apperarent tumor weight (Meth-A sarcoma; 10 mg/kg iv, Day 7) of the same compound?
**A.** 0.205 ± 0.022 g

**Q.** And the Apperarent tumor weight (Meth-A sarcoma; 10 mg/kg iv, Day 10)?
**A.** 0.361 ± 0.056 g

**Q.** What about the Apperarent tumor weight (Meth-A sarcoma; 10 mg/kg iv, Day 13) of the same compound?
**A.** 0.455 ± 0.116 g

**Q.** And the Apperarent tumor weight (Meth-A sarcoma; 10 mg/kg iv, Day 16)?
**A.** 0.846 ± 0.233 g

**Q.** And the “effect on prolongation of life” value (Meth-A sarcoma; at the dose of 3 mg/kg)?
**A.** significant effect

**Q.** And the “effect on tumore regression” value (Meth-A sarcoma; at the dose of 3 mg/kg)?
**A.** significant effect

**Q.** What about the Survival period (Meth-A sarcoma; dose 3 (mg/kg)) of the same compound?
**A.** 48.5 ± 8.7 days

**Q.** And the Survival period (Meth-A sarcoma; dose 10 (mg/kg))?
**A.** 46.6 ± 7.2 days
